According to patent US20250114369A1, “COMPOUNDS AND METHODS FOR TREATMENT OF VIRAL INFECTIONS” (Gilead Sciences, Inc., priority 2023, published 2025):

What was measured:
[1] = system: Respiratory syncytial virus recombinant with luciferase (RSV-Luc5); test: microbe, parasite or virus in culture; type: cell-based; conditions: human respiratory syncytial virus, NHBE, 72 h, read-out: RSV NHBE EC50 (nM)
[2] = system: SARS Coronavirus 2 recombinant with NanoLuc (SARS-CoV2-NLuc); test: organism not typed; type: cell-based; conditions: 48 h
in vitro [3] = type: cell-based; conditions: human
Experimental: Cytotoxicity of the compounds was determined in uninfected cells using the cell viability reagent in a similar fashion as described before for other cell types (Cihlar et al., Antimicrob Agents Chemother. 2008, 52(2):655-65). HEp-2 (1.5×10^3 cells/well) and MT-4 (2×10^3 cells/well) cells were plated in 384-well plates and incubated with the appropriate medium containing 3-fold serially diluted compound ranging from 15 nM to 100,000 nM. Cells were cultured for 4-5 days at 37° C. Following the incubation, the cells were allowed to equilibrate to 25° C., and cell viability was determined by adding Cell-Titer Glo viability reagent. The mixture was incubated for 10 min, and the luminescence signal was quantified using an Envision plate reader. Untreated cell and cells treated at 2 μM puromycin (Sigma, St. Louis, MO) serve as […] cell viability control, respectively. The percent of cell viability was calculated for each tested compound concentration relative to the 0% and 100% controls and the CC50 value was determined by non-linear regression as a compound concentration reducing the cell viability by […].

in vitro [4] = type: in vitro ADME; conditions: human, s9, pH 7.4
Experimental: Duplicate aliquots of test compound or positive control substrate (GS-7340) were added to PMSF-free Intestinal S9 fractions diluted with 100 mM phosphate buffered saline, pH 7.4, to obtain a protein concentration of 1.0 mg/mL. The S9 metabolic reactions were initiated by the addition of the substrates to the S9 reaction mixture to a final concentration of 2 μM. At 0, 10, 20, 30, 60 and 120 min, 25 μL aliquots of the reaction mixture were transferred to plates containing 225 μl of IS/Q solution. After quenching, the plates were centrifuged at 3000×g for 30 minutes, and 150 μL aliquots of each supernatant were diluted with 150 μL water. Aliquots (10 μL) of the diluted supernatant were analyzed on a Thermo Q-Exactive mass spectrometer as described below. Quantification of test compounds and controls was performed by analyte/internal standard peak area ratio (PAR) values measured on a Thermo Q-Exactive mass spectrometer coupled to a Dionex UltiMate 3000 HPLC with a Leap Technologies HTC PAL autosampler. The column used was a Thermo Hypersil GOLD (1.9 μm particle size, 2.1×50 mm). Mobile phase A consisted of […] formic acid in water. Mobile phase B consisted of 0.1% (v/v) formic acid in acetonitrile. Elution of analytes was achieved by a series of linear gradients of acetonitrile in water containing 0.1% (v/v) formic acid. The mass spectrometer was calibrated on a weekly basis and mass tolerance of 5 ppm was used.

in vitro [5] = type: in vitro ADME; conditions: human, s9, pH 7.4; remark: listed apart in the source
Experimental: Duplicate aliquots of test compound or positive control substrate (GS-7340) were added to S9 stock diluted with 100 mM potassium phosphate buffer, pH 7.4, to obtain a protein concentration of 2.4 mg/mL. The S9 metabolic reactions were initiated by the addition of the substrates to the S9 reaction mixture to a final concentration of 2 μM. At 2, 12, 25, 45, 65 and 90 min, 25 μL aliquots of the reaction mixture were transferred to plates containing 225 μl of IS/Q solution. After quenching, the plates were centrifuged at 3000×g for 30 minutes, and 150 μL aliquots of each supernatant were diluted with 150 μL water. Aliquots (10 μL) of the diluted supernatant were analyzed on a Thermo Q-Exactive mass spectrometer as described below. Quantification of test compounds and controls was performed by analyte/internal standard peak area ratio (PAR) values measured on a Thermo Q-Exactive mass spectrometer coupled to a Dionex UltiMate 3000 HPLC with a Leap Technologies HTC PAL autosampler. The column used was a Thermo Hypersil GOLD (1.9 μm particle size, 2.1×50 mm). Mobile phase A consisted of […] formic acid in water. Mobile phase B consisted of 0.1% (v/v) formic acid in acetonitrile. Elution of analytes was achieved by a series of linear gradients of acetonitrile in water containing 0.1% (v/v) formic acid. The mass spectrometer was calibrated on a weekly basis and mass tolerance of 5 ppm was used.

[6] = type: in vitro ADME; conditions: 2 μM
Experimental: Duplicate aliquots of plasma were warmed to 37° C. and the metabolic reactions initiated by the addition of test compound (6 μL of 0.1 mM DMSO stock) or plasma stability standard (GS-7340) to obtain a final substrate concentration of 2 μM. At 0.05, 0.5, 1, 2, 3 and 4 hr, 25 μL aliquots of the reaction mixture were transferred to plates containing 225 μl of IS/Q quenching solution. After quenching, the plates were centrifuged at 3000×g for 30 minutes, and 150 μL supernatant was diluted with 150 μL water. Aliquots (10 μL) of the diluted supernatant were analyzed on a Thermo Q-Exactive mass spectrometer as described below. Quantification of test compounds and controls was performed by analyte/internal standard peak area ratio (PAR) values measured on a Thermo Q-Exactive mass spectrometer coupled to a Dionex UltiMate 3000 HPLC with a Leap Technologies HTC PAL autosampler. The column used was a Thermo Hypersil GOLD (1.9 μm particle size, 2.1×50 mm). Mobile phase A consisted of […] formic acid in water. Mobile phase B consisted of 0.1% (v/v) formic acid in acetonitrile. Elution of analytes was achieved by a series of linear gradients of acetonitrile in water containing 0.1% (v/v) formic acid. The mass spectrometer was calibrated on a weekly basis and mass tolerance of 5 ppm was used.

[7] = system: Caco-2 cells (clone C2BBel); test: CACO-2 permeability; type: in vitro ADME; conditions: donor pH 6.5, receiver pH 7.4; for DM Caco2 A to B: forward (A to B); for DM Caco2 B to A: reverse (B to A)
Experimental: Pre-plated Caco-2 cells (clone C2BBel) were obtained from Sigma-Aldrich, Inc. (Atlanta, GA). Cell monolayers were grown to confluence on collagen-coated, microporous, polycarbonate membranes in 24-well transwell plates for 21 days. The permeability assay buffer in donor wells was Hanks' balanced salt solution (HBSS) containing 10 mM HEPES and 15 mM glucose at a pH of 6.5 containing 200 μM BNPP. The receiver wells used HBSS buffer containing 10 mM HEPES and 15 mM glucose at a pH of 7.4 and supplemented with 1% BSA. After an initial equilibration with transport buffer, TEER values were read to test membrane integrity. The experiment was started by the addition of buffers containing test compounds, 200 μl and 1000 μl in the apical and basolateral chamber, respectively. At 0- and 2-hour post dose, 10 μL was sampled from donor compartment and was immediately diluted in 190 μL of 20% methanol. At 1 and 2 hours post dose, 100 μl of solution was taken from the receiver compartments and was immediately diluted in 100 μl of 20% methanol. Removed buffer was replaced with fresh buffer and a correction was applied to all calculations for the removed material. Each compound was tested in 2 separate replicate wells for each condition. All samples were then extracted with 400 μl 100% acetonitrile with internal standard to precipitate protein. Cells were dosed on the apical or basolateral side to determine forward (A to B) and reverse (B to A) permeability. To test for non-specific binding and compound instability, the total amount of drug was quantitated at the end of the experiment and compared to the material present in the original dosing solution as a percent recovery. Formation of the parent compound (GS-441524; Reference Compound A) was monitored in assay wells dosed with the prodrug. Samples were analyzed by LC-MS/MS.
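Throughout, for CC50: uninfected MT-4 cells over 4-5 days by CellTiter-Glo.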

## COC(=O)[C@H]1COC(=O)N1C(=O)OC[C@H]1O[C@@](C#N)(c2ccc3c(N)ncnn23)[C@H](O)[C@@H]1O [Compound 5, O3-[[(2R,3S,4R,5R)-5-(4-aminopyrrolo[2,1-f][1,2,4]triazin-7-yl)-5-cyano-3,4-dihydroxy-tetrahydrofuran-2-yl]methyl]04-methyl (4R)-2-oxooxazolidine-3,4-dicarboxylate]
[1]
  EC50: 20100 nM
[2]
  EC50: 20.4 µM
In vitro [3]
  CC50: > 50 µM
In vitro [4]
  half-life at 2 μM: 83.4 min
In vitro [5]
  half-life at 2 μM: 256 min
[6]
  STA Human Plasma 37: 77.22
[7]
  DM Caco2 A to B: 0.04
  DM Caco2 B to A: 0.08

## CC(C)OC(=O)[C@@H](NC(=O)OC[C@H]1O[C@@](C#N)(c2ccc3c(N)ncnn23)[C@H](O)[C@@H]1O)C(C)C [Compound 7, isopropyl-((((2R,3S,4R,5R)-5-(4-aminopyrrolo[2,1-f][1,2,4]triazin-7-yl)-5-cyano-3,4-dihydroxytetrahydrofuran-2-yl)methoxy)carbonyl)-L-valinate]
[1]
  EC50: > 50000 nM
[2]
  EC50: > 50 µM
In vitro [3]
  CC50: > 50 µM
In vitro [4]
  half-life at 2 μM: ≥ 792 min
In vitro [5]
  half-life at 2 μM: ≥ 592 min
[6]
  STA Human Plasma 37: 1303.4
[7]
  DM Caco2 A to B: 0.115
  DM Caco2 B to A: 6.245

## N#C[C@@]1(c2ccc3c(N)ncnn23)O[C@H](COC(=O)N2CCCCCCC2)[C@@H](O)[C@H]1O [Compound 9, [(2R,3S,4R,5R)-5-(4-aminopyrrolo[2,1-f][1,2,4]triazin-7-yl)-5-cyano-3,4-dihydroxy-tetrahydrofuran-2-yl]methyl azocane-1-carboxylate]
[1]
  EC50: 10300 nM
[2]
  EC50: > 50 µM
In vitro [3]
  CC50: > 50 µM
In vitro [4]
  half-life at 2 μM: 400 min
In vitro [5]
  half-life at 2 μM: 526 min
[6]
  STA Human Plasma 37: 1584
[7]
  DM Caco2 A to B: 0.47
  DM Caco2 B to A: 6.67

## CCOC(=O)c1cccn1C(=O)OC[C@H]1O[C@@](C#N)(c2ccc3c(N)ncnn23)[C@H](O)[C@@H]1O [Compound 10, O1-[[(2R,3S,4R,5R)-5-(4-aminopyrrolo[2,1-f][1,2,4]triazin-7-yl)-5-cyano-3,4-dihydroxy-tetrahydrofuran-2-yl]methyl]O2-ethyl pyrrole-1,2-dicarboxylate]
[1]
  EC50: 1520 nM
[2]
  EC50: 5.16 µM
In vitro [3]
  CC50: > 50 µM
In vitro [4]
  half-life at 2 μM: 1.71 min
In vitro [5]
  half-life at 2 μM: 4.6 min
[6]
  STA Human Plasma 37: 68.966
[7]
  DM Caco2 A to B: 0.22
  DM Caco2 B to A: 5.54

## CCCSC(=O)OC[C@H]1O[C@@](C#N)(c2ccc3c(N)ncnn23)[C@H](OC(C)=O)[C@@H]1OC(C)=O [Compound 22, [(2R,3R,4R,5R)-4-acetoxy-5-(4-aminopyrrolo[2,1-f][1,2,4]triazin-7-yl)-5-cyano-2-(propylsulfanylcarbonyloxymethyl)tetrahydrofuran-3-yl]acetate]
[1]
  EC50: 3320 nM
[2]
  EC50: 9.83 µM
In vitro [3]
  CC50: > 50 µM
In vitro [4]
  half-life at 2 μM: 1.59 min
In vitro [5]
  half-life at 2 μM: ≤ 2 min

## CCSC(=O)OC[C@H]1O[C@@](C#N)(c2ccc3c(N)ncnn23)[C@H](OC(C)=O)[C@@H]1OC(C)=O [Compound 23, [(2R,3R,4R,5R)-4-acetoxy-5-(4-aminopyrrolo[2,1-f][1,2,4]triazin-7-yl)-5-cyano-2-(ethylsulfanylcarbonyloxymethyl)tetrahydrofuran-3-yl]acetate]
[1]
  EC50: 3810 nM
[2]
  EC50: 12.4 µM
In vitro [3]
  CC50: > 50 µM
In vitro [4]
  half-life at 2 μM: 0.885 min
In vitro [5]
  half-life at 2 μM: ≤ 2 min

## CC(=O)O[C@H]1[C@@H](OC(C)=O)[C@](C#N)(c2ccc3c(N)ncnn23)O[C@@H]1COC(=O)SC(C)(C)C [Compound 24, [(2R,3R,4R,5R)-4-acetoxy-5-(4-aminopyrrolo[2,1-f][1,2,4]triazin-7-yl)-2-(tert-butylsulfanylcarbonyloxymethyl)-5-cyano-tetrahydrofuran-3-yl]acetate]
[1]
  EC50: 19400 nM
[2]
  EC50: > 50 µM
In vitro [3]
  CC50: > 50 µM
In vitro [4]
  half-life at 2 μM: 0.921 min
In vitro [5]
  half-life at 2 μM: ≤ 2 min

## CC(=O)O[C@H]1[C@@H](OC(C)=O)[C@](C#N)(c2ccc3c(N)ncnn23)O[C@@H]1COC(=O)SC1CCCC1 [Compound 25, [(2R,3R,4R,5R)-4-acetoxy-5-(4-aminopyrrolo[2,1-f][1,2,4]triazin-7-yl)-5-cyano-2-(cyclopentylsulfanylcarbonyloxymethyl)tetrahydrofuran-3-yl]acetate]
[1]
  EC50: 1250 nM
[2]
  EC50: 4.02 µM
In vitro [3]
  CC50: 32.5 µM
In vitro [4]
  half-life at 2 μM: 1.14 min
In vitro [5]
  half-life at 2 μM: ≤ 2 min
[6]
  STA Human Plasma 37: 72.169
